In PubChem BioAssay AID330 (DTP/NCI, 2004):
Values joined by “and” are separate entries in the source; they are usually repeats but may differ in a detail not shown here. Identical values can stand only once. Toxic doses and inconclusive results are not listed. How the source made its calls: active means survival T/C of 150% or more; inactive means T/C below 125% in these data.

Test system: P388 leukemia ip, CD2F1 mice, survival T/C
Test: NCI In Vivo Anticancer Drug Screen. Data for tumor model P388 Leukemia (intraperitoneal) in CD2F1 (CDF1) mice
Conditions: endpoint: median survival time, higher = longer survival
Outline: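 Mice carrying the transplanted tumor received test compound or vehicle. Survival was recorded in each group, and the value is the treated-group measurement divided by that of the vehicle-treated control group.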

[1] = dose: 50.0 mg/kg/injection, schedule: Q01DX009 (ip), vehicle: saline
[2] = dose: 100.0 mg/kg/injection, schedule: Q01DX009 (ip), vehicle: saline
[3] = dose: 200.0 mg/kg/injection, schedule: Q01DX009 (ip), vehicle: saline

Measured: T/C

O=C1CN(CCN2CCCCC2)CC(=O)N2Cc3ccccc3CN12
inactive: dose: 12.5 mg/kg/injection, schedule: Q01DX005 (ip), vehicle: saline with Tween-80 102 % of control | dose: 25.0 mg/kg/injection, schedule: Q01DX005 (ip), vehicle: saline with Tween-80 104 % of control | dose: 50.0 mg/kg/injection, schedule: Q01DX005 (ip), vehicle: saline with Tween-80 100 % of control and 102 % of control

O=C(O)COc1ccc(I)cc1I
inactive: dose: 100.0 mg/kg/injection, schedule: Q04DX003 (ip), vehicle: Klucel (hydroxypropylcellulose) (HPC) 110 % of control | dose: 200.0 mg/kg/injection, schedule: Q04DX003 (ip), vehicle: Klucel (hydroxypropylcellulose) (HPC) 91 % of control

CN(C)CCCNC(=O)/C=C\C(=O)O
inactive: dose: 12.5 mg/kg/injection, schedule: Q01DX009 (ip), vehicle: saline 107 % of control | dose: 25.0 mg/kg/injection, schedule: Q01DX009 (ip), vehicle: saline 100 % of control | [1] 109 % of control and 93 % of control | [2] 94 % of control | [3] 94 % of control | dose: 400.0 mg/kg/injection, schedule: Q01DX009 (ip), vehicle: saline 97 % of control

COc1ccc(C2OC3=C(Nc4ccc([N+](=O)[O-])cc4N3)C2=O)c(OC)c1 (configuration not stated)
inactive: dose: 50.0 mg/kg/injection, schedule: Q01DX005 (ip), vehicle: Klucel (hydroxypropylcellulose) (HPC) 93 % of control | dose: 100.0 mg/kg/injection, schedule: Q01DX005 (ip), vehicle: Klucel (hydroxypropylcellulose) (HPC) 101 % of control | dose: 200.0 mg/kg/injection, schedule: Q01DX005 (ip), vehicle: Klucel (hydroxypropylcellulose) (HPC) 101 % of control

CCNC(=O)OCc1c(Cl)nc2n1CCS2
inactive: dose: 25.0 mg/kg/injection, schedule: Q01DX001 (ip), vehicle: Klucel (hydroxypropylcellulose) (HPC) 103 % of control | dose: 50.0 mg/kg/injection, schedule: Q01DX001 (ip), vehicle: Klucel (hydroxypropylcellulose) (HPC) 110 % of control | dose: 100.0 mg/kg/injection, schedule: Q01DX001 (ip), vehicle: Klucel (hydroxypropylcellulose) (HPC) 105 % of control

CCCC[P+](CCCC)(CCCC)CC(=O)O
inactive: dose: 25.0 mg/kg/injection, schedule: Q01DX009 (ip), vehicle: saline with Tween-80 97 % of control | dose: 50.0 mg/kg/injection, schedule: Q01DX009 (ip), vehicle: saline with Tween-80 100 % of control | dose: 100.0 mg/kg/injection, schedule: Q01DX009 (ip), vehicle: saline with Tween-80 95 % of control

O=C1C2=C(Nc3cc([N+](=O)[O-])ccc3N2)OC1c1ccc(C2OC3=C(Nc4ccc([N+](=O)[O-])cc4N3)C2=O)cc1 (configuration not stated)
inactive: dose: 60.0 mg/kg/injection, schedule: Q01DX005 (ip), vehicle: Klucel (hydroxypropylcellulose) (HPC) 102 % of control | dose: 120.0 mg/kg/injection, schedule: Q01DX005 (ip), vehicle: Klucel (hydroxypropylcellulose) (HPC) 96 % of control | dose: 240.0 mg/kg/injection, schedule: Q01DX005 (ip), vehicle: Klucel (hydroxypropylcellulose) (HPC) 99 % of control

COC1C(CO)OC(Oc2ccc(C(=C3CCCCC3)c3ccc(O)cc3)cc2)C(O)C1O (configuration not stated)
inactive: [1] 95 % of control | [2] 95 % of control | [3] 94 % of control

COc1cc2c3cc1Oc1c(O)c(OC)cc4c1[C@H](Cc1ccc(cc1)Oc1cc(ccc1O)C[C@H]3N(C)CC2)N(C)CC4
inactive: dose: 1.25 mg/kg/injection, schedule: Q01DX009 (ip), vehicle: water 100 % of control | dose: 2.5 mg/kg/injection, schedule: Q01DX009 (ip), vehicle: water 101 % of control | dose: 5.0 mg/kg/injection, schedule: Q01DX009 (ip), vehicle: water 97 % of control | dose: 10.0 mg/kg/injection, schedule: Q01DX009 (ip), vehicle: water 101 % of control | dose: 20.0 mg/kg/injection, schedule: Q01DX009 (ip), vehicle: other 103 % of control | dose: 20.0 mg/kg/injection, schedule: Q01DX009 (ip), vehicle: water 94 % of control | dose: 40.0 mg/kg/injection, schedule: Q01DX009 (ip), vehicle: other 94 % of control | dose: 80.0 mg/kg/injection, schedule: Q01DX009 (ip), vehicle: other 109 % of control

CCC1CN2CCc3cc(OC)c(OC)cc3C2C(C2(O)C(=O)Nc3ccccc32)C1=O (configuration not stated)
inactive: dose: 50.0 mg/kg/injection, schedule: Q01DX009 (ip), vehicle: Klucel (hydroxypropylcellulose) (HPC) 99 % of control | dose: 100.0 mg/kg/injection, schedule: Q01DX009 (ip), vehicle: Klucel (hydroxypropylcellulose) (HPC) 100 % of control | dose: 200.0 mg/kg/injection, schedule: Q01DX009 (ip), vehicle: Klucel (hydroxypropylcellulose) (HPC) 100 % of control
